According to ChEMBL document CHEMBL2203036, “Discovery of 1-[2-(2,4-dimethylphenylsulfanyl)phenyl]piperazine (Lu AA21004): a novel multimodal compound for the treatment of major depressive disorder” (J Med Chem, 2011):

Experiments:
[1] = molecular target: Sodium-dependent serotonin transporter (Rattus norvegicus, UniProt P31652); experiment: Inhibition of SERT-mediated [3H]5HT uptake in rat synaptosomes by scintillation counting; assay type: subcellular, Brain
[2] = molecular target: T1, 5-hydroxytryptamine receptor 1A (Homo sapiens, UniProt P08908); experiment: biochemical; assay type: cell-based, HEK293
T1 sequence (P08908 whole entry): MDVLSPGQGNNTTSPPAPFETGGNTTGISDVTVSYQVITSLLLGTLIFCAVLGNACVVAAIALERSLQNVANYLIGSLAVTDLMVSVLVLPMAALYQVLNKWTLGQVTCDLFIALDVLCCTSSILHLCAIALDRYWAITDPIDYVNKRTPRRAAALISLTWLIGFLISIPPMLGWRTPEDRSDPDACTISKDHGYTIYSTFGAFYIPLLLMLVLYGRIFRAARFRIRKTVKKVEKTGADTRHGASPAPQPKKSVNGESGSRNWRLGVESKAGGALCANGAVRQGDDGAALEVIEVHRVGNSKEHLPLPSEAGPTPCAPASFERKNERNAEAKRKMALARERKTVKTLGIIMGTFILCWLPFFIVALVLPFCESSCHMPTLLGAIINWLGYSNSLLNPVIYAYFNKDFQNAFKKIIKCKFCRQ
Description: Displacement of [3H]5-carboxamidotryptamine to human 5HT1A expressed in HEK293 cells by filter binding assay

[3] = molecular target: T2, 5-hydroxytryptamine receptor 3A (Homo sapiens, UniProt P46098); experiment: Displacement of [3H]granisetron from human 5HT3A receptor expressed in HEK293 cells by filter binding assay; assay type: cell-based
T2 sequence (P46098 whole entry): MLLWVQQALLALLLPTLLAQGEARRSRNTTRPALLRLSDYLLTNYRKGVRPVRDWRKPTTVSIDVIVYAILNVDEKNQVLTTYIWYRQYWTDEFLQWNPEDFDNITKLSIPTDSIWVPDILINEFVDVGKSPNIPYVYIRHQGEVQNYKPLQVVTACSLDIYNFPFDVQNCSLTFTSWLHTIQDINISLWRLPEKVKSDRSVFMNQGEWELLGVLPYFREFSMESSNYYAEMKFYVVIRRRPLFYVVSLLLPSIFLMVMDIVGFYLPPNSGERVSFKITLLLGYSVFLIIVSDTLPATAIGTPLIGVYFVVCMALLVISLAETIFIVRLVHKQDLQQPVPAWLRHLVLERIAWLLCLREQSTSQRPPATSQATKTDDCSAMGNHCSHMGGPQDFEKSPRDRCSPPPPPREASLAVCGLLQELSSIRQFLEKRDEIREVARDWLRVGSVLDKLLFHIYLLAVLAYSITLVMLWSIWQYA

Rattus norvegicus [4] = species: Rattus norvegicus; experiment: Selectivity ratio of IC50 for NET to IC50 for SERT in rat synaptosomes; settings: Brain
Rattus norvegicus [5] = species: Rattus norvegicus; experiment: Selectivity ratio of IC50 for DAT to IC50 for SERT in rat synaptosomes; settings: Brain
Cytochrome P450 2C9 = Cytochrome P450 2C9 (Homo sapiens, UniProt P11712); experiment: Inhibition of human recombinant CYP2C9 using dibenzylfluorescein after 45 mins by fluorescence spectrophotometric analysis; assay type: ADME
Cytochrome P450 2C9, sequence (P11712 whole entry): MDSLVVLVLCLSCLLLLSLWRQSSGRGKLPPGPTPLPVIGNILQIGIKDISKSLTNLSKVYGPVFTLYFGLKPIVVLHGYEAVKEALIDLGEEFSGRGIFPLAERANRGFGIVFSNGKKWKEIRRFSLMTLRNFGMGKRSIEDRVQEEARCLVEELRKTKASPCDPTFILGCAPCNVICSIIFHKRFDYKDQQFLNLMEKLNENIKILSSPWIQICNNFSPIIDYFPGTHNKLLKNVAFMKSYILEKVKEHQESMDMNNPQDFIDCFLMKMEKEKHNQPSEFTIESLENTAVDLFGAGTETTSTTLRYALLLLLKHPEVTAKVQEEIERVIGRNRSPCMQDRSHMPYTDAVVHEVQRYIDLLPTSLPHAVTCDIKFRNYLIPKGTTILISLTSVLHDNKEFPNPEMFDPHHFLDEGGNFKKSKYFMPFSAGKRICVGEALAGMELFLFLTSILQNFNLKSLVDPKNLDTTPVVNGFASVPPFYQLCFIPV

Liver microsomes [6] = experiment: Intrinsic clearance in rat liver microsomes at 1 uM after 60 mins by LC-MS/MS analysis; assay type: ADME, Microsome; settings: 1 h
Cytochrome P450 2D6 = Cytochrome P450 2D6 (Homo sapiens, UniProt P10635); experiment: Inhibition of human recombinant CYP2D6 using 3-[2-(N,N-diethyl-N-methylamino)ethyl]-7-methoxy- 4-methylcoumarin after 45 mins by fluorescence spectrophotometric analysis; assay type: ADME
Cytochrome P450 2D6, sequence (P10635 whole entry): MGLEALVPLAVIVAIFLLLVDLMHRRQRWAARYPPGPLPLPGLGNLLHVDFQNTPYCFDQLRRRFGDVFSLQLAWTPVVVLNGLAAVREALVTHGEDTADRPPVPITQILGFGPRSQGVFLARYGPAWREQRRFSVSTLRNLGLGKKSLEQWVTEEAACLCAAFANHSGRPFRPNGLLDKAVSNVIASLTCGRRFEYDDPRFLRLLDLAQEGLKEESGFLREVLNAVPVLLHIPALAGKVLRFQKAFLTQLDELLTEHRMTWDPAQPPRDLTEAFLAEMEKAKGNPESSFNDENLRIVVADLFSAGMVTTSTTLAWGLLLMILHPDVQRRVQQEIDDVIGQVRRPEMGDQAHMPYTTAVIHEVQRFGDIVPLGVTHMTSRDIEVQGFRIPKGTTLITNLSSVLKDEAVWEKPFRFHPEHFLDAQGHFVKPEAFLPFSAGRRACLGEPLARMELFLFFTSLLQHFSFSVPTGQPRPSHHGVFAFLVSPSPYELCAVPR

[7] = molecular target: Sodium-dependent dopamine transporter (Rattus norvegicus, UniProt P23977); experiment: Inhibition of DAT-mediated [3H]DA in rat synaptosomes by scintillation counting; assay type: subcellular, Brain
Sodium-dependent dopamine transporter, sequence (P23977 whole entry): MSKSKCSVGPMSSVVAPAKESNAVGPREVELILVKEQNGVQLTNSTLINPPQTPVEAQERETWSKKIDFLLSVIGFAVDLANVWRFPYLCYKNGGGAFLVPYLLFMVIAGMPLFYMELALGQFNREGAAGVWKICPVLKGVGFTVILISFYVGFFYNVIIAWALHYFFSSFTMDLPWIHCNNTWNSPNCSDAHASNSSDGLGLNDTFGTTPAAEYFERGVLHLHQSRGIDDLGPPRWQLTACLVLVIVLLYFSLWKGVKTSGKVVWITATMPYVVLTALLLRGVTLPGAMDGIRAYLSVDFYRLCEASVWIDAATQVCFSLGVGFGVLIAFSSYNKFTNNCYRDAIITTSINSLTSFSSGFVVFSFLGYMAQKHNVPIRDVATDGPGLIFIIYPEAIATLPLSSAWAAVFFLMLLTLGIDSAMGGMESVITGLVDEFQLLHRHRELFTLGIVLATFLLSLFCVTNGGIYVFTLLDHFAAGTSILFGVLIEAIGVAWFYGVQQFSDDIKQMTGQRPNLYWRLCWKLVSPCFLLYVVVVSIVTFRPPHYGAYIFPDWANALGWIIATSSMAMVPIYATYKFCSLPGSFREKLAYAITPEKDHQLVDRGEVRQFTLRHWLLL

Cytochrome P450 3A4 = Cytochrome P450 3A4 (Homo sapiens, UniProt P08684); experiment: Inhibition of human recombinant CYP3A4 using resorufin benzyl ether after 30 mins by fluorescence spectrophotometric analysis; assay type: ADME
Cytochrome P450 3A4, sequence (P08684 whole entry): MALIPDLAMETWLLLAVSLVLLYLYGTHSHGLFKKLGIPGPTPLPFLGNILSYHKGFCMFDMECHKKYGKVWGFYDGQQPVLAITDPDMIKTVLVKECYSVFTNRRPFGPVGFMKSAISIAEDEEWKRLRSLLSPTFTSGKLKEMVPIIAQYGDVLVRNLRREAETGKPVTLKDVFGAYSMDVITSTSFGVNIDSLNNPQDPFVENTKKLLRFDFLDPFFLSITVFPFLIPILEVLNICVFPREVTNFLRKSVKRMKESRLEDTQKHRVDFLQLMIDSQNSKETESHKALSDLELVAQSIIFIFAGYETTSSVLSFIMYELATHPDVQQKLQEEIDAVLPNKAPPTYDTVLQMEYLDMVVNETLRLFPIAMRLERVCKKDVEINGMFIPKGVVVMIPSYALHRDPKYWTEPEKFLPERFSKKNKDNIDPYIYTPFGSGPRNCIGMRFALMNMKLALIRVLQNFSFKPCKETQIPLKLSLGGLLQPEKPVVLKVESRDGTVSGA

Cytochrome P450 1A2 = molecular target: T3, Cytochrome P450 1A2 (Homo sapiens, UniProt P05177); experiment: Inhibition of human recombinant CYP1A2 using 7-ethoxy-3-cyanocoumarin after 28 mins by fluorescence spectrophotometric analysis; assay type: ADME
T3 sequence (P05177 whole entry): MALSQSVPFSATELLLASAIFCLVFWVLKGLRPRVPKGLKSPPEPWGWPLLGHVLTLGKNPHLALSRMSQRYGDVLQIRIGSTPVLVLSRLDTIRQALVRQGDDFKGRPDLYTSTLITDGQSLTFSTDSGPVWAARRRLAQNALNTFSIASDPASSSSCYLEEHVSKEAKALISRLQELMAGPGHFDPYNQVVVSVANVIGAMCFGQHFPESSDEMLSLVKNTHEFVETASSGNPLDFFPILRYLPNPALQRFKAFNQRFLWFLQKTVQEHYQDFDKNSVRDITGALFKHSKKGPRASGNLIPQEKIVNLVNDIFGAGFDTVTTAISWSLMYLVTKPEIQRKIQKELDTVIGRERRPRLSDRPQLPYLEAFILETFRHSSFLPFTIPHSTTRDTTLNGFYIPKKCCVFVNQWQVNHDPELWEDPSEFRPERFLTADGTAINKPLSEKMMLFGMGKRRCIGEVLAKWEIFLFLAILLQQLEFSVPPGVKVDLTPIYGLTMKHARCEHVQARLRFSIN

[8] = Inhibition of NET-mediated [3H]NE in rat synaptosomes by scintillation counting; assay type: subcellular, Brain
Liver microsomes [9] = experiment: Intrinsic clearance in human liver microsomes at 1 uM after 60 mins by LC-MS/MS analysis; assay type: ADME, Microsome; settings: 1 h

Sodium-dependent serotonin transporter, sequence (P31652 whole entry): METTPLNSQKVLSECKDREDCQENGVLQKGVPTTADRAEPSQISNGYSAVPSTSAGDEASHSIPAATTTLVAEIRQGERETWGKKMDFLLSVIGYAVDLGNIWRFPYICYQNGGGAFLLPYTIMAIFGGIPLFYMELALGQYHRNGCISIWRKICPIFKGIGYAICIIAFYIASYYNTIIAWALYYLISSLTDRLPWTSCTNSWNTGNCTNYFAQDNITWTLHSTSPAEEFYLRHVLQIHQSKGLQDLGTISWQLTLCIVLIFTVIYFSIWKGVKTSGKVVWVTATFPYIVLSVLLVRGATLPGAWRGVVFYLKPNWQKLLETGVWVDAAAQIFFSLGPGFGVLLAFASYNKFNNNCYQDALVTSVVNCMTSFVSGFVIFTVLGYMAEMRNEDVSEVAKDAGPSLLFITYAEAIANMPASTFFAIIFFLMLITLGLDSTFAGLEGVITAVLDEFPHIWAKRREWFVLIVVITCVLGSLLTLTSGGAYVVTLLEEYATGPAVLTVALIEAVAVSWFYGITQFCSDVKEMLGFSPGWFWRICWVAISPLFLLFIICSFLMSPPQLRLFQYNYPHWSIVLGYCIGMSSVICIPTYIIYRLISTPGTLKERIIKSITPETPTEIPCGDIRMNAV

SMILES | IC50 [1] | Ki [2] | Ki [3] | also measured
COc1ccc(Sc2ccccc2N2CCNCC2)c(OC)c1 | 7.6 nM | 330 nM | 32 nM | –
Clc1cccc(Sc2ccccc2N2CCNCC2)c1Cl | – | – | – | Ratio IC50 (Rattus norvegicus [4]): 7; Ratio IC50 (Rattus norvegicus [5]): 1; IC50 (Cytochrome P450 2C9): 40000 nM
Cc1ccc(Sc2ccccc2N2CCNCC2)c(Cl)c1.Cl | 9.7 nM | 78 nM | 7.3 nM | CLH (Liver microsomes [6]): 120 mL/min; Ratio IC50 (Rattus norvegicus [4]): 35; Ratio IC50 (Rattus norvegicus [5]): 33; IC50 (Cytochrome P450 2D6): 1500 nM; IC50 [7]: 320 nM; IC50 (Cytochrome P450 3A4): 5500 nM; IC50 (Cytochrome P450 2C9): 40000 nM; IC50 (Cytochrome P450 1A2): 34000 nM; IC50 [8]: 340 nM; CLH (Liver microsomes [9]): 0.6 L/min
Cc1ccc(Oc2ccccc2N2CCNCC2)c(C)c1 | 250 nM | 65 nM | 270 nM | –
COc1ccc(Sc2ccccc2N2CCNCC2)cc1 | 8 nM | 130 nM | 36 nM | –
FC(F)(F)c1ccc(Sc2ccccc2N2CCNCC2)cc1 | 6.9 nM | 240 nM | 140 nM | –
COc1cc(C)ccc1Sc1ccccc1N1CCNCC1 | 11 nM | 210 nM | 17 nM | –
Fc1ccc(Sc2ccccc2N2CCNCC2)cc1 | 67 nM | 39 nM | 53 nM | –
Cc1ccc(Sc2ccc(F)cc2)c(N2CCNCC2)c1 | 68 nM | 1100 nM | 440 nM | –
Cc1ccc(Sc2ccc(Cl)cc2)c(N2CCNCC2)c1 | 9.5 nM | 2500 nM | 500 nM | –
O=C1CC2(CCCC2)CC(=O)N1CCCCN1CCN(c2ncccn2)CC1 [BUSPIRONE] | – | – | > 10000 nM | –
CC(C)(C)c1ccc(Sc2ccccc2N2CCNCC2)cc1 | 2100 nM | 2500 nM | 450 nM | –
COc1ccccc1Sc1ccccc1N1CCNCC1 | 330 nM | 59 nM | 52 nM | –
Cc1ccc(Sc2ccccc2)c(N2CCNCC2)c1 | 150 nM | 1100 nM | 310 nM | –
Cc1ccc(Sc2cc(C)ccc2N2CCNCC2)c(C)c1 | 200 nM | – | 45 nM | –
Cc1ccc(Sc2ccc(C)cc2N2CCNCC2)c(C)c1 | 25 nM | – | 150 nM | –
Cc1ccc(Sc2cccc(C)c2N2CCNCC2)c(C)c1 | 44 nM | 420 nM | 160 nM | –

SMILES | IC50 [1] | Ki [2] | Ki [3] | also measured
COc1cccc(Sc2ccccc2N2CCNCC2)c1OC | 37 nM | – | – | –
Cc1ccc(Sc2ccc(C)cc2N2CCNCC2)cc1 | 20 nM | 2800 nM | 260 nM | –
Cc1ccc(Sc2ccccc2N2CCN(C)CC2)c(C)c1 | 680 nM | 120 nM | 130 nM | –
Cc1cccc(Sc2ccccc2N2CCNCC2)c1 | 54 nM | 100 nM | 64 nM | –
c1ccc(Sc2ccccc2N2CCNCC2)cc1 | 390 nM | 30 nM | 64 nM | –
Clc1ccc(Sc2ccccc2N2CCNCC2)cc1Cl | 4.7 nM | 68 nM | 110 nM | –
Cc1ccc(Sc2ccccc2N2CCNCC2)cc1C.Cl | 5.8 nM | 53 nM | 33 nM | CLH (Liver microsomes [6]): 290 mL/min; Ratio IC50 (Rattus norvegicus [4]): 150; Ratio IC50 (Rattus norvegicus [5]): 21; IC50 (Cytochrome P450 2D6): 2800 nM; IC50 [7]: 120 nM; IC50 (Cytochrome P450 3A4): 11000 nM; IC50 (Cytochrome P450 2C9): 34000 nM; IC50 (Cytochrome P450 1A2): 26000 nM; IC50 [8]: 880 nM; CLH (Liver microsomes [9]): 0.5 L/min
Cc1ccc(Sc2ccccc2N2CCCNCC2)c(C)c1 | 130 nM | – | 27 nM | –
Cc1ccc(Sc2c(C)cccc2N2CCNCC2)c(C)c1 | 540 nM | 540 nM | 670 nM | –
COc1ccc(Sc2ccccc2N2CCNCC2)c(Cl)c1 | 4.3 nM | 94 nM | 12 nM | –
Cc1ccccc1Sc1ccccc1N1CCNCC1 | 51 nM | 14 nM | 32 nM | –
Cl.Clc1ccc(Sc2ccccc2N2CCNCC2)c(Cl)c1 | 5.2 nM | 78 nM | 26 nM | CLH (Liver microsomes [6]): 38 mL/min; Ratio IC50 (Rattus norvegicus [4]): 23; Ratio IC50 (Rattus norvegicus [5]): 48; IC50 (Cytochrome P450 2D6): 900 nM; IC50 [7]: 250 nM; IC50 (Cytochrome P450 3A4): 4400 nM; IC50 (Cytochrome P450 2C9): 34000 nM; IC50 (Cytochrome P450 1A2): 27000 nM; IC50 [8]: 120 nM; CLH (Liver microsomes [9]): 0.5 L/min
Cc1cccc(Sc2ccccc2N2CCNCC2)c1C | 4.4 nM | – | 29 nM | Ratio IC50 (Rattus norvegicus [4]): 20; Ratio IC50 (Rattus norvegicus [5]): 38; IC50 [7]: 170 nM; IC50 (Cytochrome P450 1A2): 24000 nM
COc1cccc(Sc2ccccc2N2CCNCC2)c1 | 53 nM | 140 nM | 62 nM | –
Cc1ccc(Sc2ccccc2N2CCNCC2)cc1.Cl | 18 nM | 44 nM | 56 nM | CLH (Liver microsomes [6]): 260 mL/min; Ratio IC50 (Rattus norvegicus [4]): 25; Ratio IC50 (Rattus norvegicus [5]): 6.1; IC50 (Cytochrome P450 2D6): 2700 nM; IC50 [7]: 110 nM; IC50 (Cytochrome P450 3A4): 16000 nM; IC50 (Cytochrome P450 2C9): 40000 nM; IC50 (Cytochrome P450 1A2): 40000 nM; IC50 [8]: 460 nM; CLH (Liver microsomes [9]): 1.1 L/min
COc1ccc(Sc2ccccc2N2CCNCC2)cc1OC | 15 nM | 160 nM | 86 nM | –
